{"source": "paper PMC10221837", "about": "“Alanine Substitution to Determine the Effect of LR5 and YR6 Rice Peptide Structure on Antioxidant and Anti-Inflammatory Activity” (Nutrients, 2023)", "system": "RAW264.7 cells", "test": "MTT proliferation and cytotoxicity of peptides (stimulating index)", "assay_type": "cell-based, mouse", "details": "RAW264.7, MTT, 24 h, across 12.5, 25, 50 and 100 μg/mL peptide", "method": "The MTT colorimetry method was used to determine the effects of original rice peptides and replacement peptides on RAW264.7 cell proliferation, and the toxic effects of these peptides on the cells. RAW264.7 cells were cultured in DMEM high glucose medium containing 10% (v/v) fetal bovine serum (FBS) and 1% (v/v) of penicillin–streptomycin solution (10,000 U/mL of penicillin and 10,000 U/mL of streptomycin). The cells were cultured at 37 °C in a humidified incubator (Boxun Co., Ltd., Shanghai, China) with 5% (v/v) CO2, with sub-culturing every three days.\nBriefly, pre-cultured, logarithmic phase cells were inoculated into 96-well plates (with six double wells for each group), at a cell density of 6.0 × 10^4 cells/mL. Then, 200 μL of cell suspension was added into the wells and incubated for 6 h to make the cells adhere to the well wall. After that, different concentrations of samples (12.5, 25, 50, and 100 μg/mL) were added to four of the six corresponding wells for each group. Sterile water and immunoglobulin G (IgG) were used as the blank and positive control groups, respectively. The samples were subsequently incubated in a humidified incubator with 5% (v/v) CO2 at 37 °C for 24 h, and then 20 μL of MTT solution (5 mg/mL) was added to each well and incubated for a further 4 h. Next, the culture medium supernatant was gently removed from the wells, and 150 μL of dimethyl sulfoxide (DMSO) solution was added into the wells, which were shaken for 10 min at room temperature to ensure that the […] was fully dissolved. Then, the solution was immediately detected at 490 nm. The cytotoxicity was evaluated based on the following stimulating index (SI) value Formula (3):(3) SI=OD1/OD0 where OD1 is the absorbance value at 490 nm of the sample group or the IgG group, and OD0 is the absorbance value at 490 nm of the blank group.", "note": "Ends that are not written are not given here."}
{"substance": "AGLYPR [AGR6]", "values": [{"measurement": "SI value (stimulating index, OD sample/OD blank)", "value": "greater than 1.0"}]}
{"substance": "AHKFR [AR5]", "values": [{"measurement": "SI value (stimulating index, OD sample/OD blank)", "value": "greater than 1.0"}]}
{"substance": "LHKAR [LAR5]", "values": [{"measurement": "SI value (stimulating index, OD sample/OD blank)", "value": "greater than 1.0"}]}
{"substance": "LHKFR [LR5]", "values": [{"measurement": "SI value (stimulating index, OD sample/OD blank)", "value": "greater than 1.0"}]}
{"substance": "YGAYPR [YAR6]", "values": [{"measurement": "SI value (stimulating index, OD sample/OD blank)", "value": "greater than 1.0"}]}
{"substance": "YGLAPR [YLR6]", "values": [{"measurement": "SI value (stimulating index, OD sample/OD blank)", "value": "greater than 1.0"}]}
{"substance": "YGLYAR [YGR6]", "values": [{"measurement": "SI value (stimulating index, OD sample/OD blank)", "value": "greater than 1.0"}]}
{"substance": "YGLYPR [YR6]", "values": [{"measurement": "SI value (stimulating index, OD sample/OD blank)", "value": "greater than 1.0"}]}
